According to PubChem BioAssay AID248 (DTP/NCI, 2004):
Several values for one entry are separate records, joined by “and”; a condition that tells them apart may be missing. Identical values can stand only once. Inconclusive results and toxic doses are left out. No stated cut-off is given here; in the data, active means T/C of 150% or more; inactive means T/C below 125%. Square brackets hold non-standard residues; d marks the D form. Peptide text beside a SMILES is read from it. * marks the point of attachment. Cbz = O=C(OCc1ccccc1)*; Sar = CNCC(=O)O

Test system: L1210 leukemia ip in BDF1 mice, survival T/C
Assay: NCI In Vivo Anticancer Drug Screen. Data for tumor model L1210 Leukemia (intraperitoneal) in B6D2F1 (BDF1) mice
Conditions: endpoint: mean survival time, higher = longer survival
Summary of the method: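 Antitumor effect is assessed in tumor-bearing animals. Survival in the compound arm is compared with a vehicle-dosed control arm and expressed as their quotient.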

[1] = dose: 100.0 mg/kg/injection, schedule: Q04DX002 (ip), vehicle: saline with Tween-80
[2] = dose: 200.0 mg/kg/injection, schedule: Q04DX002 (ip), vehicle: saline with Tween-80
[3] = dose: 100.0 mg/kg/injection, schedule: Q01DX001 (ip), vehicle: saline
[4] = dose: 200.0 mg/kg/injection, schedule: Q01DX001 (ip), vehicle: saline
[5] = dose: 400.0 mg/kg/injection, schedule: Q01DX001 (ip), vehicle: saline
[6] = dose: 100.0 mg/kg/injection, schedule: Q01DX001 (ip), vehicle: carboxymethylcellulose (CMC)
[7] = dose: 200.0 mg/kg/injection, schedule: Q01DX001 (ip), vehicle: carboxymethylcellulose (CMC)
[8] = dose: 400.0 mg/kg/injection, schedule: Q01DX001 (ip), vehicle: carboxymethylcellulose (CMC)
[9] = dose: 50.0 mg/kg/injection, schedule: Q01DX001 (ip), vehicle: saline
[10] = dose: 100.0 mg/kg/injection, schedule: Q01DX009 (ip), vehicle: Klucel (hydroxypropylcellulose) (HPC)
[11] = dose: 200.0 mg/kg/injection, schedule: Q01DX009 (ip), vehicle: Klucel (hydroxypropylcellulose) (HPC)
[12] = dose: 100.0 mg/kg/injection, schedule: Q04DX003 (ip), vehicle: saline
[13] = dose: 200.0 mg/kg/injection, schedule: Q04DX003 (ip), vehicle: saline
[14] = dose: 400.0 mg/kg/injection, schedule: Q04DX003 (ip), vehicle: saline
[15] = dose: 50.0 mg/kg/injection, schedule: Q01DX009 (ip), vehicle: saline
[16] = dose: 100.0 mg/kg/injection, schedule: Q01DX009 (ip), vehicle: saline
[17] = dose: 100.0 mg/kg/injection, schedule: Q04DX003 (ip), vehicle: saline with Tween-80
[18] = dose: 200.0 mg/kg/injection, schedule: Q04DX003 (ip), vehicle: saline with Tween-80
[19] = dose: 400.0 mg/kg/injection, schedule: Q04DX003 (ip), vehicle: saline with Tween-80

Measured: T/C

COc1ccc(C(=O)CN2C=C(C(=O)c3cc4ccccc4n3S(=O)(=O)c3ccccc3)CCC2)cc1
inactive: [1] 94 % of control | [2] 87 % of control | dose: 400.0 mg/kg/injection, schedule: Q04DX002 (ip), vehicle: saline with Tween-80 87 % of control

CCCC(=O)CCCCNC(=O)c1ccccc1
inactive: [1] 99 % of control | [2] 89 % of control

CC1CN(CCCCO)C(=O)NC1=O (configuration not stated)
inactive: [3] 90 % of control | [4] 88 % of control

CN(C)CCCCN(C)CCCN(C)C
inactive: [3] 114 % of control | [4] 102 % of control | [5] 98 % of control

NC(=S)N/N=C/c1c(O)ccc2ccccc12
inactive: [6] 96 % of control | [7] 94 % of control | [8] 94 % of control

CCCCCCCCC[As](=O)(O)O
inactive: dose: 1.5 mg/kg/injection, schedule: Q01DX001 (ip), vehicle: carboxymethylcellulose (CMC) 98 % of control | dose: 3.0 mg/kg/injection, schedule: Q01DX001 (ip), vehicle: carboxymethylcellulose (CMC) 104 % of control | dose: 60.0 mg/kg/injection, schedule: Q01DX001 (ip), vehicle: carboxymethylcellulose (CMC) 109 % of control

O=C1Nc2ccccc2C2Cc3c([nH]c4ccccc34)CC12 (configuration not stated)
inactive: [9] 115 % of control | [3] 104 % of control | [4] 104 % of control | [5] 89 % of control

CCOc1ccccc1NC(=O)c1c(Br)c(Br)c(Br)c(Br)c1C(=O)O
inactive: [10] 102 % of control | [11] 102 % of control

COC(=O)CN(C)C(=O)CNC(=O)OCc1ccccc1 (Cbz-Gly-[Sar]-OMe)
inactive: [12] 97 % of control | [13] 90 % of control | [14] 100 % of control

C/C(=N\NC(=O)c1ccccc1)c1ccc(-c2ccccc2)cc1
inactive: [10] 94 % of control | [11] 105 % of control | dose: 400.0 mg/kg/injection, schedule: Q01DX009 (ip), vehicle: Klucel (hydroxypropylcellulose) (HPC) 94 % of control

CN1C2CC(=O)CC1C1CC2C1
inactive: dose: 12.5 mg/kg/injection, schedule: Q04DX002 (ip), vehicle: Klucel (hydroxypropylcellulose) (HPC) 98 % of control | dose: 25.0 mg/kg/injection, schedule: Q04DX002 (ip), vehicle: Klucel (hydroxypropylcellulose) (HPC) 94 % of control

O=C(OCCN(CCOC(=O)c1ccc([N+](=O)[O-])cc1)c1c[nH]c(=O)[nH]c1=O)c1ccc([N+](=O)[O-])cc1
inactive: [9] 93 % of control | [3] 93 % of control | [4] 93 % of control | [5] 110 % of control

O=C1c2cccc(O)c2C(=O)c2c(O)cc(CO)cc21
inactive: [3] 98 % of control | [4] 95 % of control | [5] 95 % of control

CCC#CC(O)(C(=O)OC)c1ccccc1 (configuration not stated)
inactive: [6] 100 % of control | [7] 108 % of control | [8] 96 % of control

CCCCC(=O)N/N=C/c1cccc(Br)c1
inactive: [3] 102 % of control | [4] 102 % of control | [5] 98 % of control

O=S(=O)(c1ccc(I)cc1)c1ccc(I)cc1
inactive: dose: 50.0 mg/kg/injection, schedule: Q01DX001 (ip), vehicle: carboxymethylcellulose (CMC) 104 % of control | [6] 95 % of control | [7] 88 % of control | [8] 95 % of control

CCCc1cccc[n+]1CC(=O)c1ccccc1
inactive: dose: 6.25 mg/kg/injection, schedule: Q01DX009 (ip), vehicle: saline sonified 115 % of control | dose: 12.5 mg/kg/injection, schedule: Q01DX009 (ip), vehicle: saline sonified 107 % of control | dose: 25.0 mg/kg/injection, schedule: Q01DX009 (ip), vehicle: saline sonified 91 % of control

O=c1[nH]c2ccccc2c2ccc([N+](=O)[O-])cc12
inactive: [6] 95 % of control | [7] 106 % of control | [8] 93 % of control

O=S1(=O)CC(N2CCCCC2)C1
inactive: dose: 75.0 mg/kg/injection, schedule: Q01DX001 (ip), vehicle: saline 103 % of control

CN(C)CC(=O)c1ccc(Cl)cc1
inactive: [15] 87 % of control | [16] 102 % of control

c1ccc(C(CCN2CCCC2)c2ccccn2)cc1 (configuration not stated)
inactive: dose: 44.0 mg/kg/injection, schedule: Q01DX Z (ip), vehicle: saline 90 % of control | dose: 66.0 mg/kg/injection, schedule: Q01DX Z (ip), vehicle: saline 89 % of control

O=[N+]([O-])c1cc(C(F)(F)F)ccc1Oc1ccccc1
inactive: [17] 95 % of control | [18] 110 % of control | [19] 101 % of control

O=C1NC(=O)c2ccccc21
inactive: dose: 25.0 mg/kg/injection, schedule: Q01DX009 (ip), vehicle: saline 94 % of control | [15] 99 % of control | [16] 94 % of control and 96 % of control | [12] 95 % of control | dose: 200.0 mg/kg/injection, schedule: Q01DX009 (ip), vehicle: saline 95 % of control and 108 % of control | [13] 98 % of control | dose: 400.0 mg/kg/injection, schedule: Q01DX009 (ip), vehicle: saline 95 % of control and 96 % of control | [14] 106 % of control

O=C1OCCC1[P+](c1ccccc1)(c1ccccc1)c1ccccc1 (configuration not stated)
inactive: [3] 88 % of control

OCC(O)COc1ccccc1 (configuration not stated)
inactive: [3] 108 % of control | [4] 96 % of control | [5] 96 % of control

CCOS(=O)O
inactive: [12] 96 % of control | [13] 96 % of control | [14] 98 % of control

[O-]c1on[n+](-c2ccccc2)c1-c1ccccc1
inactive: dose: 75.0 mg/kg/injection, schedule: Q01DX009 (ip), vehicle: Klucel (hydroxypropylcellulose) (HPC) 93 % of control | dose: 75.0 mg/kg/injection, schedule: Q04DX003 (ip), vehicle: Klucel (hydroxypropylcellulose) (HPC) 109 % of control | dose: 150.0 mg/kg/injection, schedule: Q01DX009 (ip), vehicle: Klucel (hydroxypropylcellulose) (HPC) 97 % of control | dose: 150.0 mg/kg/injection, schedule: Q04DX003 (ip), vehicle: Klucel (hydroxypropylcellulose) (HPC) 105 % of control | dose: 300.0 mg/kg/injection, schedule: Q01DX009 (ip), vehicle: Klucel (hydroxypropylcellulose) (HPC) 95 % of control | dose: 300.0 mg/kg/injection, schedule: Q04DX003 (ip), vehicle: Klucel (hydroxypropylcellulose) (HPC) 107 % of control

O=C(O)C1CCC=CCC1
inactive: dose: 50.0 mg/kg/injection, schedule: Q01DX009 (ip), vehicle: other 91 % of control | dose: 100.0 mg/kg/injection, schedule: Q01DX009 (ip), vehicle: other 96 % of control | dose: 200.0 mg/kg/injection, schedule: Q01DX009 (ip), vehicle: other 98 % of control

C1CCC2(CC1)SSC1(CCCCC1)S2
inactive: dose: 100.0 mg/kg/injection, schedule: Q04DX003 (ip), vehicle: other 95 % of control | dose: 200.0 mg/kg/injection, schedule: Q04DX003 (ip), vehicle: other 98 % of control | dose: 400.0 mg/kg/injection, schedule: Q04DX003 (ip), vehicle: other 98 % of control

OCC1OC(c2ccccc2)OC2C(CO)OC(c3ccccc3)OC12 (configuration not stated)
inactive: [17] 93 % of control | [18] 96 % of control | [19] 89 % of control

CC(=O)COc1ccccc1-c1ccccc1
inactive: dose: 100.0 mg/kg/injection, schedule: Q01DX009 (ip), vehicle: saline with Tween-80 97 % of control | dose: 200.0 mg/kg/injection, schedule: Q01DX009 (ip), vehicle: saline with Tween-80 101 % of control | dose: 400.0 mg/kg/injection, schedule: Q01DX009 (ip), vehicle: saline with Tween-80 100 % of control

O=[N+]([O-])c1cc(Br)c(Br)cc1Br
inactive: dose: 100.0 mg/kg/injection, schedule: Q01DX001 (ip), vehicle: Klucel (hydroxypropylcellulose) (HPC) 106 % of control | [10] 97 % of control | dose: 200.0 mg/kg/injection, schedule: Q01DX001 (ip), vehicle: Klucel (hydroxypropylcellulose) (HPC) 101 % of control | [11] 96 % of control | dose: 400.0 mg/kg/injection, schedule: Q01DX001 (ip), vehicle: Klucel (hydroxypropylcellulose) (HPC) 101 % of control

CC[P+](CC=C(C)C)(c1ccccc1)c1ccccc1
inactive: dose: 0.78 mg/kg/injection, schedule: Q04DX003 (ip), vehicle: Klucel (hydroxypropylcellulose) (HPC) 96 % of control | dose: 1.56 mg/kg/injection, schedule: Q04DX003 (ip), vehicle: Klucel (hydroxypropylcellulose) (HPC) 94 % of control | dose: 3.12 mg/kg/injection, schedule: Q04DX003 (ip), vehicle: Klucel (hydroxypropylcellulose) (HPC) 113 % of control and 88 % of control
